Experimental findings from PubChem BioAssay (NCI) are described below.

Test systems include MALME-3M melanoma; ACHN renal; SN12C renal; M14 melanoma; RPMI-8226 leukemia; HT29 colon; KM12 colon; HCT-116 colon; RXF 393 renal.
Holding throughout (test): inhibition of tumour cell growth, NCI panel, 48 h

Values joined by “and” are separate entries in the source; they are usually repeats but may differ in a detail not shown here. Equal values may be shown once.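 In this assay, cells in 96-well plates receive the compound at five concentrations for 48 hours. Endpoints are linearly interpolated between the surrounding concentrations. Abbreviation: GI50, concentration required for 50% inhibition of growth. TGI is the concentration that stops growth completely.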 Numbered stars: 1 amine (or outer) side, 2 acyl side, 3 side chain; on linkers, the order of the positions; unused ones are H or OH. Bridge positions count the residues as written; N and C are the ends. Square brackets hold non-standard residues; d marks the D form. Peptide text beside a SMILES is read from it. I, II: the chains in the order shown. Actinocin(1to9) = Cc1c2oc3c(C)ccc(C(=O)[*:2])c3nc-2c(C(=O)[*:1])c(N)c1=O; NMeY = CN[CH](Cc1ccc(O)cc1)C(=O)O; Sar = CNCC(=O)O

As to `NC(Cc1ccccc1)c1nccs1` (stereo unspecified), the TGI in the experiment with MALME-3M melanoma, in the experiment on ACHN renal, in the experiment on SN12C renal, with M14 melanoma, with RPMI-8226 leukemia and in the experiment on HT29 colon was over 100 µM throughout. The TGI in the experiment with KM12 colon and in the experiment with HCT-116 colon was over 100 µM throughout.

For the molecule `COc1ccc(CC2C(=O)OC(C)C(NC(=O)c3c4nc5c(C(=O)NC6C(=O)NC(C(C)C)C(=O)N7CCCC7C(=O)N(C)CC(=O)N(C)C(Cc7ccc(OC)cc7)C(=O)OC6C)ccc(C)c5oc-4c(C)c(=O)c3N)C(=O)NC(C(C)C)C(=O)N3CCCC3C(=O)N(C)CC(=O)N2C)cc1` (stereo unspecified) (I: TVP[Sar][NMeY](Me) / II: TVP[Sar][NMeY](Me); ester I:1-I:C, II:1-II:C; linker I:N-II:N via Actinocin(1to9); configuration not given here), the TGI in the experiment with ACHN renal was over 0.591 µM; in the experiment with SN12C renal, over 1 µM; in the experiment with RPMI-8226 leukemia, under 0.01 µM; in the experiment on HCT-116 colon it was 1.12 µM and > 1 µM. The GI50 in the experiment with M14 melanoma is < 0.01 µM and 0.0665 µM; with HT29 colon, < 0.01 µM and 0.00275 µM; in the experiment on RXF 393 renal, < 0.01 µM and 0.0306 µM; with HCT-116 colon, < 0.01 µM and 0.00298 µM.

As for `CC(=O)[O-].N.N.N.N.[Co+3].[O-][Cl+3]([O-])([O-])[O-].[OH3+]`, the GI50 with MALME-3M melanoma, in the experiment with ACHN renal, in the experiment with SN12C renal, with M14 melanoma, in the experiment on RPMI-8226 leukemia and with HT29 colon was over 100 µM in each case. Also, the GI50 in the experiment with KM12 colon and in the experiment with HCT-116 colon was over 100 µM each time. The TGI with MALME-3M melanoma, in the experiment with ACHN renal, with SN12C renal, in the experiment on M14 melanoma, in the experiment with RPMI-8226 leukemia and in the experiment on HT29 colon was over 100 µM in each case. Further, the TGI in the experiment on KM12 colon and in the experiment on HCT-116 colon was over 100 µM throughout.

On to `COc1ccc2[nH]c(C(=O)OCc3ccc4c(Cl)cc(Cl)c(O)c4n3)cc2c1`, for which the GI50 in the experiment on MALME-3M melanoma is 1.48 µM; with ACHN renal, 1.08 µM; with SN12C renal, 1.24 µM; in the experiment on M14 melanoma it was 1.44 µM; with RPMI-8226 leukemia, 0.803 µM; with HT29 colon, 0.778 µM. Moreover, the GI50 in the experiment on KM12 colon is 1.76 µM; in the experiment on RXF 393 renal, 0.407 µM; with HCT-116 colon it was 0.436 µM. Besides, the TGI in the experiment on MALME-3M melanoma was 2.82 µM; with ACHN renal, 2.26 µM; in the experiment on SN12C renal, 2.51 µM; with M14 melanoma, 2.91 µM; in the experiment on RPMI-8226 leukemia, 3.86 µM; in the experiment with HT29 colon, 2.32 µM. Also, the TGI with KM12 colon was found to be 3.49 µM; in the experiment on RXF 393 renal, 1.76 µM; in the experiment with HCT-116 colon, 1.65 µM.

For `C[CH2][Sn]([CH2]C)([O]C(=O)c1ccc(F)cc1)[O]C(=O)c1ccc(F)cc1`, the GI50 in the experiment with MALME-3M melanoma is 16.6 µM; in the experiment on ACHN renal, 17.8 µM; with SN12C renal it was 36 µM; in the experiment with M14 melanoma, 17.5 µM; in the experiment on RPMI-8226 leukemia it was 20.1 µM; in the experiment on HT29 colon, 63.8 µM. Also, the results for the GI50 in the experiment on KM12 colon, in the experiment with RXF 393 renal and in the experiment on HCT-116 colon were over 100 µM, 13.7 µM and 33 µM, respectively. Further, the TGI in the experiment on MALME-3M melanoma was 34.2 µM; in the experiment with ACHN renal, 32.4 µM; with SN12C renal, over 100 µM; in the experiment with M14 melanoma it was 33.4 µM; in the experiment on RPMI-8226 leukemia, 53.9 µM; in the experiment on HT29 colon it was over 100 µM. Also, the TGI is over 100 µM in the experiment with KM12 colon, 28.8 µM in the experiment on RXF 393 renal and over 55.8 µM in the experiment on HCT-116 colon.

Regarding `CC1=CCCC2C(C=O)(C1)CC(C)C2(CO)CC/C(=C/CO)CO` (stereo unspecified), the TGI in the experiment with MALME-3M melanoma, with ACHN renal, with SN12C renal, with M14 melanoma, in the experiment on RPMI-8226 leukemia and in the experiment with HT29 colon was over 100 µM each time. The TGI in the experiment with KM12 colon, in the experiment on RXF 393 renal and in the experiment with HCT-116 colon was over 100 µM in each case.

With `CC1c2[nH]c3ccccc3c2CCN1O` (stereo unspecified), the TGI with MALME-3M melanoma, in the experiment on ACHN renal, in the experiment with SN12C renal, in the experiment with M14 melanoma, in the experiment with RPMI-8226 leukemia and in the experiment with HT29 colon was over 100 µM in each case. Further, the TGI with KM12 colon, with RXF 393 renal and in the experiment with HCT-116 colon was over 100 µM throughout.

Take `COC(=O)N/N=C(\C)CC(=O)Nc1ccc(Cl)cc1`: the TGI with MALME-3M melanoma, with M14 melanoma, with RPMI-8226 leukemia, with HT29 colon, in the experiment on KM12 colon and with RXF 393 renal was over 100 µM in each case. Besides, the TGI with HCT-116 colon was over 100 µM.

On to `CC(=O)NN1C(=O)C(Cc2ccccc2)c2ccccc21` (stereo unspecified), for which the TGI in the experiment with MALME-3M melanoma, in the experiment on ACHN renal, in the experiment with SN12C renal, with M14 melanoma, with RPMI-8226 leukemia and in the experiment with HT29 colon was over 100 µM throughout. Moreover, the TGI in the experiment on KM12 colon and with HCT-116 colon was over 100 µM each time.

Turning to `CC(=O)[CH-]C(=O)c1ccccc1.CC(=O)[CH-]C(=O)c1ccccc1.[O-]c1ccc2c(c1)OCO2.[O-]c1ccc2c(c1)OCO2.[Ti+4]`, the GI50 in the experiment on MALME-3M melanoma is 23.1 µM; in the experiment with ACHN renal, 31.6 µM; with SN12C renal, 43.9 µM; in the experiment with M14 melanoma it was 20.2 µM; in the experiment with RPMI-8226 leukemia it was 18.3 µM; in the experiment with HT29 colon, 26.8 µM. The GI50 was 16.2 µM in the experiment with KM12 colon and 37 µM with HCT-116 colon. The TGI with MALME-3M melanoma was 50.2 µM; in the experiment with ACHN renal, over 100 µM; with SN12C renal, over 100 µM; in the experiment with M14 melanoma, 44.4 µM; in the experiment on RPMI-8226 leukemia it was 50.9 µM; with HT29 colon it was over 100 µM. For the same molecule, the figures for the TGI in the experiment on KM12 colon and with HCT-116 colon were 38.2 µM and over 100 µM, respectively.

With `CCC[CH2][Sn]1([CH2]CCC)[S]CC[N]1S(=O)(=O)c1ccc(C)cc1`, the GI50 with MALME-3M melanoma is 1.09 µM; with ACHN renal, 1.67 µM; in the experiment on M14 melanoma, 1.64 µM; in the experiment with RPMI-8226 leukemia it was 0.386 µM; with HT29 colon it was 2.04 µM; with KM12 colon, 2.02 µM. Also, the GI50 in the experiment with HCT-116 colon is 1.42 µM. Besides, the TGI with MALME-3M melanoma worked out at 2.33 µM; in the experiment on ACHN renal, 3.11 µM; with M14 melanoma, 3.12 µM; in the experiment with RPMI-8226 leukemia, 2.01 µM; in the experiment on HT29 colon, 3.73 µM; with KM12 colon, 3.59 µM. In the experiment on HCT-116 colon, the TGI was found to be 2.81 µM.
